Data as given in ChEMBL document CHEMBL1130805, “The synthesis and evaluation of benzannelated-azatoxins: the benzazatoxins” (Bioorg Med Chem Lett, 1998).
Calls of active or inactive are those of the source. The calls are words filed in the database; no cut-off is given here.

Columns and labels:
NCI-H520 = assay: Compound was evaluated for growth inhibition against NCI-H520 cells using cellular assay; assay type: functional; details: Homo sapiens
PC-3 = assay: Compound was evaluated for growth inhibition against PC-3 cells using cellular assay; assay type: functional; details: Homo sapiens
MCF7 = assay: Compound was evaluated for growth inhibition against MCF-7 cells using cellular assay; assay type: functional; details: Homo sapiens
[1] = molecular target: T1, DNA topoisomerase II (Homo sapiens) (UniProt P11388+Q02880); assay: Compound was evaluated for its ability to affect topoisomerase II inhibition; inactive; assay type: protein assay
Bos taurus = organism: Bos taurus; assay: Compound was evaluated for inhibition of tubulin polymerization in bovine brain tubulin; assay type: functional
[2] = molecular target: T1, DNA topoisomerase II (Homo sapiens); assay: Compound was evaluated for its ability to affect topoisomerase II inhibition; active; assay type: protein assay

Row | SMILES | GI50 (NCI-H520) | GI50 (PC-3) | GI50 (MCF7) | Activity [1] | IC50 (Bos taurus) | Activity [2]
1 | COc1cc([C@@H]2c3[nH]c4cc5ccccc5cc4c3C[C@H]3COC(=O)N32)cc(OC)c1O | 4 µM | 10 µM | 5 µM | inactive | 6.7 µM | 
2 | COc1cc([C@@H]2c3[nH]c4ccc5ccccc5c4c3C[C@H]3COC(=O)N32)cc(OC)c1O | 0.8 µM | 2 µM | 2 µM | inactive | 5.6 µM | 
3 | COc1cc2c(c(OC)c1OC)-c1ccc(OC)c(=O)cc1[C@@H](NC(C)=O)CC2 [COLCHICINE] | < 0.05 µM | < 0.05 µM | < 0.05 µM | inactive | 11.8 µM | 
4 | COc1cc([C@@H]2c3[nH]c4ccccc4c3C[C@H]3COC(=O)N32)cc(OC)c1O | 0.12 µM | 0.2 µM | 0.25 µM |  | 20.3 µM | Active
5 | COc1cc([C@@H]2c3[nH]c4c(ccc5ccccc54)c3C[C@H]3COC(=O)N32)cc(OC)c1O | > 50 µM | > 50 µM | > 50 µM | inactive | 51 µM | 
